From patent US8053477B2, “Inhibitors of the S100-p53 protein-protein interaction and method of inhibiting cancer employing the same” (University of Maryland, Baltimore, priority 2002, dated 2011)
Positions count from the first letter of the chain named. Like-named read-outs stand apart in the source and are kept apart here. One block for each molecule: values may come before it. Where no end group is shown, it is not given here.

Key:
S100B [1] = target: T1, S100B (UniProt P04631); assay: Fluorescence binding / competition titrations of small molecules to S100B
T1 sequence (P04631 1-92): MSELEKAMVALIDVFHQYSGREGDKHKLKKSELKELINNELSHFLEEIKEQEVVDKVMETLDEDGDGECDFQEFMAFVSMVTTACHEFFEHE
Description: (§1) Inhibition of binding of S100 proteins to p53 can be assayed by fluorescence binding/competition assays. For example, binding to S100B is monitored using fluorescent peptides such as the F43W p53 peptide ([…] (SEQ ID NO:1)) or the TRTK-12 peptide ([…] (SEQ ID NO:2)) that both contain fluorescent tryptophan residues (see Example 7). In such an assay, the binding of the peptide is monitored by changes in its fluorescence intensity at 350-370 nm in the presence of 10-20 mM calcium chloride (pH 7.4). Displacement of the peptide by the test compound is then monitored by a corresponding decrease in fluorescence intensity and the dissociation constant of the test compound from S100B is calculated using a standard competition equation (KD=Kapp/(1+[floursecent peptide]/KD peptide). The amino acid residues on S100B to which the test compound binds can then monitored by chemical shift perturbations using NMR spectroscopy.
The binding of the small molecules to S100B identified in the CADD search were measured using fluorescence spectroscopy. The compounds identified are as follows:
Compounds that fluorescent (i.e., for Compounds 9, 31 and 33) were measured by a direct binding assay to S100B via fluorescence intensity changes. […] First, changes in tyrosine fluorescence (for Tyr-17 of S100B) were sufficient in some cases to evaluate binding (Rustandi et al (1998), supra; and Szabo et al, FEBS Lett., 94:249-252 (1978)). However, to circumvent problems associated with the low quantum yield of the tyrosine residue, the F43W mutant of S100B was used (FIG. 12A), and then competition studies were done with wild-type S100B (FIG. 12B). In this S100B construct (in F43W S100B), the tryptophan residue is located in the target protein binding site, so the emission of the tryptophan mutant was measured in a straightforward manner at 338 nm as a function of adding compound. This F43W mutant has similar structure, Ca^2+-binding and target binding properties of wild-type S100B. Another approach was to bind a fluorescent probe to wild-type S100B and do competition binding assays with the compound. […] Steady state experiments to determine binding constants were performed on Aminco Bowman Series 2 Luminescence Spectrophotofluorometer with the temperature of the cell (quartz cuvettes) maintained at 25° C. Two internal controls were performed in all titrations. EGTA was added to S100B to chelate the calcium and determine whether the interaction with the drug requires the Ca^2+-dependent conformational change observed for a number of protein targets (Weber et al, supra). In addition, the titrations were performed in the absence of calcium as a control. All compounds with fluorescence emission spectra were also routinely evaluated for photobleaching before proceeding. Buffers were also checked routinely for any contaminants that may fluoresce.

[2] = system: primary malignant melanoma cells (C8146A and HTB 64); assay: Growth of primary malignant melanoma cells (cell counting after 13 days); type: cell-based; conditions: Homo sapiens
Description: (§2) The effect that compounds have on the growth of primary malignant melanoma cells (cell lines: C8146A and HTB 64) and normal melanocytes (Cell Applications Inc. 104-05 from neonatal foreskin) were measured. […] The growth inhibition constants (IC50 values) results from other compounds are listed above. In these studies, typically ˜10,000 cells were distributed evenly across T25 vials. One day later, new media with or without the small molecule (2.5 μM or 25 μM) was added, and the cells were allowed to grow for an additional 13 days. Because some molecules were delivered in DMSO, the effect of DMSO (0.1-0.2% (v/v)) on cell growth was also checked and found to have no effect at these levels (FIG. 13). At this point, the cells were washed in phosphate buffer saline (PBS), harvested by treatment with trypsin, and placed in F10 media with 5.0% (v/v) fetal bovine serum (FBS), 5.0% (v/v) newborn calf serum (NCS), and 2.0% (w/v) penicillin/streptomycin. The cells were counted with a hemocytometer in quadruplicate trials.

MCF-7 = assay: Bleomycin treatment of MCF-7 cells, Western blots of p53, mdm2, p21; type: cell-based, human; conditions: MCF-7, wild type p53; FIG. 6B lane 2
Description: Next, it was explored whether S100B could interact with endogenous p53 and affect the expression of mdm2 and p21. The human breast cancer cell line MCF-7, which has a wild type p53 genotype (Kastan et al, Cell, 71:587-597 (1992)), was transiently transfected with S100B. After S100B transfection, the cells were either treated (or not) with the x-ray mimic agent bleomycin to induce endogenous p53 production.

[3] = system: normal melanocytes (neonatal foreskin); assay: Growth of normal melanocytes (cell counting); type: cell-based; conditions: compared with melanoma cells
Description: as §2

holo-S100B = target: T2, holo-S100B (Homo sapiens, UniProt P04271); assay: NMR mapping of binding interface (HSQC chemical shift perturbation, STD); conditions: 37° C.
T2 construct: made in house
T2 sequence (P04271 1-92): T1 sequence (P04631 1-92) with E63N, S79A
Description: NMR spectroscopy experiments were carried out to determine what amino acid residues of S100B and the small molecule are interacting (FIG. 14). Resonances of S100B that interact with the small molecules were identified by titrating compounds into holo-S100B and monitoring perturbations in chemical shifts of backbone amide-proton correlations in a ^15N-edited HSQC spectrum (Mori et al, J. Magnetic Resonance, B108:94-98 (1995)). […] An example of mapping the Compound-S100B interface is provided in FIGS. 14A-14C for the interaction between holo-S100B and Compound 4. […] These residues are highlighted red in FIG. 14C for titrations with Compound 4. Resonance assignments of S100B bound to the small molecules were confirmed using a 3D NOESY-HSQC experiment, and the backbone and sidechain chemical shifts of Ca^+2-loaded S100B and S100B bound to p53 peptide as described by Drohat et al (1998), supra; Rustadni et al (2000), supra; and Rustadni et al (1998), supra, were also helpful in the assignment procedure. Regions of the inhibitors that interact with S100B were identified using epitope mapping via saturation transfer difference experiments (STDs) as described by Mayer et al, J. Am. Chem. Soc., 123:6108-6117 (2001). In FIG. 14A, protons of the compound that are proximal to S100B are indicated by arrows. […]

S100B [4] = target: T1, S100B; assay: Fluorescence binding / competition titrations of small molecules to S100B; parameters: rows headed: KD of fluorescent probe peptide for S100B; conditions: read-out: KD of fluorescent probe peptide for S100B; probes used in competition studies with wild-type S100B
Description: as §1
The binding of the small molecules to S100B identified in the CADD search were measured using fluorescence spectroscopy. […]
Compounds that fluorescent (i.e., for Compounds 9, 31 and 33) were measured by a direct binding assay to S100B via fluorescence intensity changes. […] First, changes in tyrosine fluorescence (for Tyr-17 of S100B) were sufficient in some cases to evaluate binding (Rustandi et al (1998), supra; and Szabo et al, FEBS Lett., 94:249-252 (1978)). […]

C8146A melanoma cells = assay: siRNA transfection of C8146A melanoma cells, Western blots of S100B, p53, p21; type: cell-based, human; conditions: siRNA 2.0, 20 nM; harvested 24 hrs after transfection
Description: The small interfering RNA (siRNA) used consisted of […] (nt) double-stranded RNA, which was synthesized by Xeragon Inc. (Huntsville, Ala.). The sequence of the siRNA, i.e., 5′-ACUACUGCCUGCCACGAGUUC-3 (SEQ ID NO:6), corresponds to the S100β C-terminal end (nt 244-265) plus two dT 3′ overhang.
Different concentrations of siRNA (2.0, 20 nM) were added to the cells along with 2.0 μg of pCMV.3 empty vector (Stratagene, La Jolla, Calif.). The siRNA was transfected in C8146A melanoma cells using FuGENE reagent (Roche Molecular Biochemicals, Indianapolis, Ind.) according to the manufacturer's recommendation. The cells were harvested 24 hrs later and analyzed by Western blots as described above.

[5] = direct fluorescence, F43W S100B or peptide-probe competition, 25° C., calcium present, read-out: Kd (binding to S100B, fluorescence spectroscopy)
[6] = 312 h, primary malignant melanoma cells, screened at 2.5 μM or 25 μM, 13 days, read-out: IC50 (growth inhibition constant)

Kd (S100B [1]; [5]): ~12 µM
Molecule: COc1cccc(N2C(=O)c3ccc(C(=O)Nc4cc(C(=O)O)cc(C(=O)O)c4)cc3C2=O)c1 [Compound 45, 5-{[2-(3-Methoxy-phenyl)-1,3-dioxo-2,3-dihydro-1H-isoindole-5-carbonyl]-amino}-isophthalic acid]

Kd (S100B [1]; [5]): 1.4 µM | Kd (S100B [1]; read-out: binding constant (KD) between wild-type holo-S100B and pentamidine, competition of pentamidine bound to F43W S100B with wild-type S100B): 0.7 µM | IC50 ([2]; primary malignant melanoma cells (C8146A), read-out: IC50 for inhibition of cell growth): ~0.5 µM | binding site on S100B by NMR (holo-S100B): in the p53 binding site
Molecule: N=C(N)c1ccc(OCCCCCOc2ccc(C(=N)N)cc2)cc1 [pentamidine, reference compound]
effect on normal melanocytes, in words [3]: lesser effects on normal melanocytes

Kd (S100B [1]; [5]): ~24 µM
Molecule: CC(C)(C)NC(=O)c1cccc(N2C(=O)c3ccc(C(=O)O)cc3C2=O)c1 [Compound 44, 2-(3-tert-Butylcarbamoyl-phenyl)-1,3-dioxo-2,3-dihydro-1H-isoindole-5-carboxylic acid]

IC50 [2, 6]: ~25 µM
Molecule: COc1cc(C2Nc3ccccc3-c3nc(SC)nnc3O2)ccc1OCC(=O)O (stereo not drawn) [Compound 33, 1,2-(3-methylthiotraizine),3,4-phenyl,6-[(2-methoxyphenoxy)Acetic Acid]morpholine]

The remaining lines, values behind:

Molecule: O=C(O)c1cc(N/N=C/c2ccc(-c3ccc(Cl)c(C(=O)O)c3)o2)ccc1Cl [Compound 31]
Kd (S100B [1]; [5]): ~6 µM | IC50 [2, 6]: ~25 µM

Molecule: O=C(COc1ccc(C(F)(F)F)c[n+]1[O-])c1cccc([N+](=O)[O-])c1 [Compound 1, 2-[2-(3-nitrophenyl)-2-oxoethoxy]-5-(tri-fluoromethyl)pyridinium-1-olate]
Kd (S100B [1]; [5]): 2.7 µM | IC50 [2, 6]: 2.5 µM

Molecule: bleomycin
basal levels of p53, mdm2 and p21, in words (MCF-7): induced

Molecule: SHLKSKKGQSTSRHKKLMWKTE [p53 (F385W), reference compound]
Kd (S100B [4]): 3 µM

Molecule: N=C(N)NC(=N)Nc1ccc(Cl)cc1C(=O)c1ccccc1 [Compound 9, {[(2-benzoyl-4-chloroanilino)(imino)methyl]amino}methanimidamide]
Kd (S100B [1]; [5]): 4 µM

Molecule: N=C(N)NC(=N)Nc1cccc(Cl)c1Cl [Compound 3, {[(2,3,dichloroanilino)(imino)methyl]amino}methanimidamide]
IC50 ([2]; primary malignant melanoma cells, read-out: IC50 (growth inhibition constant), unit inferred): < 2.5 µM

Molecule: Cc1c(NS(=O)(=O)c2ccc(NC(=O)CCC(=O)O)cc2)c(=O)n(-c2ccccc2)n1C [Compound 4, 4-(4-{[(1,5-dimethyl-3-oxo-2-phenyl-2,3,dihydro-1H-pyrazol-4-yl)amino]sulfonyl}anilino)-4-oxo butanoic acid]
Kd (S100B [1]; [5]): 2 µM | binding site on S100B by NMR (holo-S100B): interacts with the C-terminus of S100B (loop 4) and another region of S100B (loop 2)

Molecule: 5′-ACUACUGCCUGCCACGAGUUC-3 [siS100B]
increase in p53 levels (C8146A melanoma cells): 2.3 fold | lowering of S100B levels (C8146A melanoma cells): 3 fold | up-regulation of p21 protein levels (C8146A melanoma cells): 2.6 fold
